Values joined by “and” are separate entries in the source; they are usually repeats but may differ in a detail not shown here. Identical values can stand only once. Like-named read-outs stand apart in the source and are kept apart here.
Assays:
mu opioid receptor = target: T1, mu opioid receptor (Rattus norvegicus, UniProt P33535); assay: Rat Brain Mu Opioid Receptor Binding Assay (and Version 2a, [3H]DAMGO); conditions: rat forebrain membranes, margin of error 10-20%, read-out: r Ki μ
T1 construct: from tissue; host or cells: forebrain of male Wistar rats
T1 sequence (P33535 whole entry): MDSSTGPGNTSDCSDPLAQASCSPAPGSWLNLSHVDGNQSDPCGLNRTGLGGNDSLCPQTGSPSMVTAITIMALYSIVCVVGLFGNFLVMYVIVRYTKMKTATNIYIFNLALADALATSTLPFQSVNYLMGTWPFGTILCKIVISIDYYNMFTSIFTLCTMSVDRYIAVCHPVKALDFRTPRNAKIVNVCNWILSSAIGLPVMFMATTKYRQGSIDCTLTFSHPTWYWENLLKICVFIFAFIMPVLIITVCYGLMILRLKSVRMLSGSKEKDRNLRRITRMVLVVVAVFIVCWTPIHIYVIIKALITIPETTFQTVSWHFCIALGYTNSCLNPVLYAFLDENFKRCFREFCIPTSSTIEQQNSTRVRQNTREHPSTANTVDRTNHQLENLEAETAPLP
Procedure: Male, Wistar rats (150-250 g, VAF, Charles River, Kingston, N.Y.) are killed by cervical dislocation, and their brains removed and placed immediately in ice cold Tris HCl buffer (50 mM, pH 7.4). The forebrains are separated from the remainder of the brain by a coronal transection, beginning dorsally at the colliculi and passing ventrally through the midbrain-pontine junction. After dissection, the forebrains are homogenized in Tris buffer in a Teflon® glass homogenizer. The homogenate is diluted to a concentration of 1 g of forebrain tissue per 80 mL Tris and centrifuged at 39,000×g for 10 min. The pellet is resuspended in the same volume of Tris buffer containing 5 mM MgCl2 with several brief pulses from a Polytron homogenizer. This particulate preparation is used for the mu-opioid binding assays. […] The filters are rinsed three times with 2 mL of 10 mM HEPES (pH7.4), and dried in a microwave oven 2 min twice. To each sample area 2×50 μL of Betaplate Scint scintillation fluid (LKB) is added and analyzed on a LKB (Wallac) 1205 BetaPlate liquid scintillation counter.
The data are used to calculate either the % inhibition compared to control binding (when only a single concentration of test compound is evaluated) or a Ki value (when a range of concentrations is tested). % inhibition is calculated as: [(total dpm-test compound dpm)/(total dpm-nonspecific dpm)]*100. Kd and Ki values were calculated using GraphPad PRISM data analysis program.
Male, Wistar rats (150-250 g, VAF, Charles River, Kingston, N.Y.) were killed by cervical dislocation, and their brains removed and placed immediately in ice-cold Tris HCl buffer (50 mM, pH 7.4). The forebrains were separated from the remainder of the brain by a coronal transection, beginning dorsally at the colliculi and passing ventrally through the midbrain-pontine junction. After dissection, the forebrains were homogenized in Tris buffer in a Teflon®-glass homogenizer. The homogenate was diluted to a concentration of 1 g of forebrain tissue per 80 mL Tris and centrifuged at 39,000×g for 10 min. The pellet was resuspended in the same volume of Tris buffer containing 5 mM MgCl2 with several brief pulses from a Polytron homogenizer. This particulate preparation was used for the mu opioid binding assay. Following incubation with 0.8 nM of the mu selective ligand [^3H]DAMGO at 25° C. for 2.5 h in a 96-well plate with total 1 mL, the plate contents were filtered through Wallac filtermat B sheets on a Tomtec 96-well harvester. The filters were rinsed three times with 2 mL of 10 mM HEPES (pH 7.4), and dried in a microwave oven. To each sample area, Betaplate Scint scintillation fluid (LKB) was added and the resulting radioactivity quantified on a LKB (Wallac) 1205 BetaPlate liquid scintillation counter. Kd and Ki values were calculated using the GraphPad PRISM data analysis program.

human mu opioid receptor = target: T2, human mu opioid receptor (Homo sapiens, UniProt P35372); assay: Human Mu Opioid Receptor Binding Assay (CHO membranes, 3H-Damgo); conditions: read-out: hKi μ
T2 construct: purchased Perkin Elmer RBHOMM400UA; host or cells: Chinese Hamster Ovary cells (recombinant expression)
T2 sequence (P35372 whole entry): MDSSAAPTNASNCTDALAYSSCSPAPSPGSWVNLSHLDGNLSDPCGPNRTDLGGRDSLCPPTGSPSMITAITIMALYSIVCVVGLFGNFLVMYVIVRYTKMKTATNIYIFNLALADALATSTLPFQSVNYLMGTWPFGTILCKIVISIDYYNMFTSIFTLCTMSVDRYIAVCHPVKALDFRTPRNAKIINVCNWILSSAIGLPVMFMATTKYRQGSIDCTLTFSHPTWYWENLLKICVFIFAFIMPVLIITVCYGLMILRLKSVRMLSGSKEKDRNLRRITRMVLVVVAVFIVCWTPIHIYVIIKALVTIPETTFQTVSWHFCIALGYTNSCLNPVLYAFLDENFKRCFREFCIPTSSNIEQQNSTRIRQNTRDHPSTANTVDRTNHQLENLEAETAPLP
In short: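 Radioligand displacement of ³H-Damgo (diluted to 3.6 nM pre-mix) from recombinant human mu receptor in CHO membranes, 2 h, room temperature, 50 mM Tris pH 7.5 with 5 mM MgCl2. Bound label read by filtration and scintillation counting; 1 μM unlabelled Damgo defines nonspecific binding.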

[1] = target: T3, human delta subtype 2 opioid receptor (Homo sapiens, UniProt P41143); assay: Human Delta Opioid Receptor Binding Assay (CHO membranes, 3H-Naltrindole); conditions: read-out: hKi δ
T3 construct: purchased Perkin Elmer RBHODM400UA; host or cells: Chinese Hamster Ovary cells (recombinant expression)
T3 sequence (P41143 whole entry): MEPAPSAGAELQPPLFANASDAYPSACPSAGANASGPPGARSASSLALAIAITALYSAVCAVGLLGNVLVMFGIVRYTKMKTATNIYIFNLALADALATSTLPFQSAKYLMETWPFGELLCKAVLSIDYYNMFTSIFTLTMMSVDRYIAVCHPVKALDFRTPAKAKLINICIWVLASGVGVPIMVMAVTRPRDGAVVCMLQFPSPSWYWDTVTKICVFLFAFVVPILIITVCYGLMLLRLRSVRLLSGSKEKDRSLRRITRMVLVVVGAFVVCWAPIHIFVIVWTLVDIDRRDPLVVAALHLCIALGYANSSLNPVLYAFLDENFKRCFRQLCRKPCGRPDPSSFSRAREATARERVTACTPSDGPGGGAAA
In short: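 Compound displacement of tritiated naltrindole (6 nM working dilution) measured by scintillation counting after GF/C filtration. Receptor source: recombinant CHO membranes; buffer 50 mM Tris, 5 mM MgCl2, pH 7.5; 30 min room-temperature incubation. 1 μM cold naltrindole sets nonspecific binding.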

[2] = target: T4, mu opioid receptor (CHO-hMOR cell membranes) (Homo sapiens, UniProt P35372); assay: Mu Opioid Receptor Functional Assay: [35S]GTPγS Binding in CHO-hMOR Cell Membranes, Versions 1 and 2; type: biochemical
T4 construct: purchased Receptor Biology, Inc. (Baltimore, Md.); host or cells: CHO cells (recombinant expression)
T4 sequence (P35372 whole entry): as the sequence (P35372 whole entry) above
Procedure: CHO-hMOR cell membranes were purchased from Receptor Biology, Inc. (Baltimore, Md.). About 10 mg/ml of membrane protein was suspended in 10 mM TRIS-HCl pH 7.2, 2 mM EDTA, 10% sucrose, and the suspension kept on ice. One ml of membranes was added to 15 ml cold binding assay buffer containing 50 mM HEPES, pH 7.6, 5 mM MgCl2, 100 mM NaCl, 1 mM DTT and 1 mM EDTA. The membrane suspension was homogenized with a Polytron and centrifuged at 3,000 rpm for 10 min. The supernatant was then centrifuged at 18,000 rpm for 20 min. The pellet was resuspended in 10 ml assay buffer with a Polytron.
The membranes were preincubated with wheat germ agglutinin coated SPA beads (Amersham) at 25° C. for 45 min in the assay buffer. The SPA bead (5 mg/ml) coupled membranes (10 μg/ml) were then incubated with 0.5 nM [^35S]GTPγS in the assay buffer. […] A range of concentrations of receptor agonists was used to stimulate [^35S]GTPγS binding. Both basal and non-specific binding was tested in the absence of agonist; non-specific binding determination included 10 μM unlabeled GTPγS.
Compounds were tested for function as antagonists by evaluating their potential to inhibit agonist-stimulated GTPγS binding. Radioactivity was quantified on a Packard TopCount. The following parameters were calculated:
[formula] % Inhibition=(% stimulation by 1 μM SNC80−% stimulation by 1 μM SNC80 in presence of test compound)×100/(% Stimulation by 1 μM SNC80−100)
EC50 values were calculated using GraphPad Prism.

[3] = test system: novel environment-stressed mice; assay: In Vivo Assay-Stress-Induced Fecal Output (Fecal Output for 1 hr); parameters: species or system mouse; conditions: for Fecal Output (# pellets) cpd / response vs control in vivo at 30 mg/kg: 30 mg/kg oral, 1 hr; for Fecal Output (# pellets) cpd: novel environment-stressed mice; for response vs control in vivo at 30 mg/kg: Mus musculus, po, 1 h
Text: This assay evaluates the fecal output in novel environment-stressed mice to that of acclimated controls.
Methods: Adult, male, Crl:CD-1(ICR) mice, weighing ˜30-35 g were used in these studies, with a minimum of 10 mice per dose group. One group of mice was assigned as acclimated, or “non-stressed” controls. These control mice were transported from colony housing, where they were housed 3/cage in polycarbonate cages with access to food and water ad lib. to the procedure room. The mice were removed from their home cages and individually housed in 20 cm wide×20 cm deep×15 cm tall cages, equipped with a wire mesh bottom where they remained for a 16-18 hr period of acclimation to their novel environment. Mice were allowed access to food and water ad lib. during acclimation. The other groups of mice were assigned as non-acclimated, or “stressed” treatment groups. Each mouse in each group was weighed and vehicle, or test compound, was intragastrically administered by oral intubation in 0.5% methylcellulose. Mice were allowed access to water only ad lib. during the test period. After compound administrations, acclimated (control) as well as non-acclimated (stressed) mice were individually housed in a 20 cm wide×20 cm deep×15 cm tall cage, with a wire mesh bottom. An absorbant cardboard is placed beneath the cages. The number of fecal pellets excreted by each mouse was determined at hourly intervals following placement of the mice in the individual cages. Raw Data=# of fecal pellets/mouse/hr. […]

[4] = relative to acclimated control, read-out: Fecal Output cpd % control
[5] = relative to novel environment stress (NES) vehicle group, read-out: Fecal Output cpd % NES

SMILES	Ki (human mu opioid receptor)	Ki [1]	Fecal Output (# pellets) cpd [3]	response vs control in vivo at 30 mg/kg [3, 4]	response vs control in vivo at 30 mg/kg [3, 5]	also measured
CC(C)C[C@@H](c1nc(-c2ccccc2)c[nH]1)N(C)C(=O)[C@@H](N)Cc1cccc(C#N)c1 [Cpd 169]	–	–	–	–	–	Ki (mu opioid receptor): 853 nM
Cc1cc(O)cc(C)c1C[C@H](N)C(=O)N(C(C)C)[C@@H](Cc1cccc(C#N)c1)c1nc(-c2ccccc2)c[nH]1 [Cpd 122]	12.8 nM	107 nM	–	–	–	MOR GTP binding assay_v1 (% I) ([2]; version 1, % inhibition of agonist-stimulated GTPγS binding): 41.93%; MOR GTP assay_v1 % of Basal ([2]; version 1, basal binding = 100%): 278.08%
CC(C)[C@@H](c1nc(-c2ccccc2)c[nH]1)N(C)C(=O)[C@@H](N)Cc1ccc(O)cc1 [Cpd 171]	–	–	–	–	–	Ki (mu opioid receptor): 141 nM
COC(=O)c1ccc(CN(C(=O)[C@@H](N)Cc2c(C)cc(O)cc2C)[C@@H](C)c2nc(-c3ccccc3)c[nH]2)cc1 [Cpd 89]	9.2 nM	19.3 nM	6.4 pellets	128%	55.2%	–
Cc1cc(O)cc(C)c1C[C@H](N)C(=O)N(Cc1cccnc1)[C@@H](C)c1nc(-c2ccccc2)c[nH]1 [Cpd 92]	0.25 nM	5.4 nM	9.2 pellets	256%	82.9%	–
Cc1cc(O)cc(C)c1C[C@H](N)C(=O)N(Cc1cccc(C#N)c1)[C@@H](C)c1nc(-c2ccccc2)c[nH]1 [Cpd 91]	4.8 nM	15 nM	8.9 pellets	287%	69%	–
Cc1cc(C(N)=O)cc(C)c1C[C@H](N)C(=O)N(Cc1nc(-c2ccccc2)c[nH]1)[C@@H](C)c1ccccc1 [Cpd 95]	7.8 nM	278 nM	8.5 pellets	315%	93.4%	–
COc1ccc(CN(C(=O)[C@@H](N)Cc2c(C)cc(O)cc2C)[C@@H](C)c2nc(-c3ccccc3)c[nH]2)cc1OC [Cpd 102]	3.5 nM	5.2 nM	3.4 pellets	59.6%	22.7%	# of pellets, Compound (m) 3.0 ([3]; dose 3.0, oral, NES mice, fecal output 1 hr): 6.9; Fecal pellet output, Compound (% control) 3.0 ([3]; dose 3.0, oral, NES mice, vs acclimated control): 130.2 % control; Fecal pellet output, Compound (% NES) 3.0 ([3]; dose 3.0, oral, vs vehicle NES group): 64.5 % NES; # of pellets, Compound (m) 10.0 ([3]; dose 10.0, oral, NES mice, fecal output 1 hr): 4.5; Fecal pellet output, Compound (% control) 10.0 ([3]; dose 10.0, oral, NES mice, vs acclimated control): 84.9 % control; Fecal pellet output, Compound (% NES) 10.0 ([3]; dose 10.0, oral, vs vehicle NES group): 42.06 % NES; # of pellets, Compound (m) 30.0 ([3]; dose 30.0, oral, NES mice, fecal output 1 hr): 2.22; Fecal pellet output, Compound (% control) 30.0 ([3]; dose 30.0, oral, NES mice, vs acclimated control): 42 % control; Fecal pellet output, Compound (% NES) 30 ([3]; dose 30, oral, vs vehicle NES group): 20.77 % NES
CC(=O)Nc1ccc(CN(C(=O)[C@@H](N)Cc2c(C)cc(O)cc2C)[C@@H](C)c2nc(-c3ccccc3)c[nH]2)cc1 [Cpd 79]	1.7 nM	11.5 nM	7.1 pellets	197%	97.3%	–
Cc1cc(O)cc(C)c1C[C@H](N)C(=O)N(C(C)C)[C@@H](CO)c1nc(-c2ccccc2)c[nH]1 [Cpd 118]	1.04 nM	316 nM and 212 nM	7.2 pellets	134%	60.2%	–
Cc1cc(O)cc(C)c1C[C@H](N)C(=O)N(Cc1ccc(C(=O)O)cc1)[C@@H](C)c1nc(-c2ccccc2)c[nH]1 [Cpd 80]	1.09 nM	0.95 nM	–	–	75.3%	–
Cc1cc(C(N)=O)cc(C)c1C[C@H](N)C(=O)N(C(C)C)[C@@H](CO)c1nc(-c2ccccc2)c[nH]1 [Cpd 85]	5.4 nM	1170 nM	7.9 pellets	146%	65.8%	–
Cc1cc(O)cc(C)c1C[C@H](N)C(=O)N(Cc1ccc(Cl)c(Cl)c1)Cc1nc(-c2ccccc2)c[nH]1 [Cpd 87]	12.6 nM	38.9 nM	10.3 pellets	141%	79.8%	–

Reference: US10213415B2, “Compounds as opioid receptor modulators” (JANSSEN PHARMACEUTICA NV, priority 2004, dated 2019)
